Assay: Water required to dissolve 1 g of organic acid at 20° C. (Japanese Pharmacopoeia solubility)
Type: physicochemical
Method: The organic acid 1 g of which requires not less than 30 mL of water to dissolve in at 20° C. refers to such an organic acid that 30 mL or more of water is required to dissolve 1 g of the organic acid within 30 minutes at 20±5° C. by vigorous shaking for 30 seconds each time at 5-minute intervals, in accordance with the description about solubility in the Japanese Pharmacopoeia, 15th Edition, General Notices, page A-13.

With `O=C(O)/C=C/C(=O)O` [Fumaric acid] the “Water required to dissolve 1 g of organic acid in at 20° C.” value was at least 100 mL.

From patent US9084817B2, “Oral preparation comprising specific organic acid, and method for improvement in elution property and chemical stability of oral preparation” (TORAY INDUSTRIES, INC., priority 2007, dated 2015)
